In brackets after ≈: the same amount, converted by molar mass.
How the values were obtained:
Steryl-sulfatase [1] = biological target: T1, Steryl-sulfatase (Homo sapiens, UniProt P08842); experiment: Inhibition of human STS expressed in human T47D cells using [3H]E1S as substrate incubated for 1 hr followed by substrate addition measured after 24 hrs in presence of E1S by HPLC analysis; format: cell-based
T1 sequence (P08842 whole entry): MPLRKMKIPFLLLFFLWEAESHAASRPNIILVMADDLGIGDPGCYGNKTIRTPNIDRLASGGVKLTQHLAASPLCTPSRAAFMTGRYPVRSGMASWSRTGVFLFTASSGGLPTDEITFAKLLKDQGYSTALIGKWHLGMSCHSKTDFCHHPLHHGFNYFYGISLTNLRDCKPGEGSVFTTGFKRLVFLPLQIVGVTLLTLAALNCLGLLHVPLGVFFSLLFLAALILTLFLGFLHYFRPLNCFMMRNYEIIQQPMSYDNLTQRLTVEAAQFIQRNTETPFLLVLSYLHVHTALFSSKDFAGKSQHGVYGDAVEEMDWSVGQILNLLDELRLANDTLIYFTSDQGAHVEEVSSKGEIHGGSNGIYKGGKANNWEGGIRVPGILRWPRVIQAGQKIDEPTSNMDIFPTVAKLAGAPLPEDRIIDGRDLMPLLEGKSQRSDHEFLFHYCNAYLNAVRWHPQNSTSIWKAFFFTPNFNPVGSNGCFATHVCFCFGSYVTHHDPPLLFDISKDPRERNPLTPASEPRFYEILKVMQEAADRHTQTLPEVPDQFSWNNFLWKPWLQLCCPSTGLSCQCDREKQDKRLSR

Homo sapiens [2] = species on record: Homo sapiens; experiment: Selectivity ratio of IC50 for human 17beta-HSD2 to IC50 for human 17beta-HSD1
[3] = Metabolic stability in human liver S9 fraction assessed as half life measured upto 60 mins in presence of NADPH by LC-MS/MS analysis; format: ADME, subcellular; details: for half-life: liver S9 fraction
[4] = Metabolic stability in mouse liver S9 fraction assessed as half life measured upto 60 mins in presence of NADPH by LC-MS/MS analysis; format: ADME, subcellular; details: for half-life: liver S9 fraction
Homo sapiens [5] = species on record: Homo sapiens; experiment: Selectivity ratio of IC50 for human placental microsomal fraction 17beta-HSD2 to IC50 for human placental microsomal fraction 17beta-HSD1
[6] = Metabolic stability in human liver S9 fraction assessed as intrinsic clearance measured upto 60 mins in presence of NADPH by LC-MS/MS analysis; format: ADME, subcellular; details: read-out: CLH
[7] = biological target: T2, 17-beta-hydroxysteroid dehydrogenase type 1 (Homo sapiens, UniProt P14061); experiment: Inhibition of human 17beta-HSD1 expressed in human T47D cells using [3H]E1 as substrate incubated for 1 hr followed by substrate addition measured after 40 mins in presence of E1 by HPLC analysis; format: cell-based
T2 sequence (P14061 whole entry): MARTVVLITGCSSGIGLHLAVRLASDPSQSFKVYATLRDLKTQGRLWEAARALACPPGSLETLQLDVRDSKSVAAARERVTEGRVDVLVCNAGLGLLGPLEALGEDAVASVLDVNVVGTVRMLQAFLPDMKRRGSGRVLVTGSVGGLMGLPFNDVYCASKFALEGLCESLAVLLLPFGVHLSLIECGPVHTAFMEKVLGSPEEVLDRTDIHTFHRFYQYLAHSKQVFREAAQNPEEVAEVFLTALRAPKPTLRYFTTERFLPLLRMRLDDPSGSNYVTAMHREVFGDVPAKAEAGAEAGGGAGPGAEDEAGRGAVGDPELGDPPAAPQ

[8] = biological target: T2, 17-beta-hydroxysteroid dehydrogenase type 1; experiment: Inhibition of human placental cytosolic fraction 17beta-HSD1 using [3H]E1 as substrate measured after 10 mins in presence of NADH by HPLC analysis; format: tissue-based, Placenta
[9] = biological target: T3, 17-beta-hydroxysteroid dehydrogenase type 2 (Homo sapiens, UniProt P37059); experiment: Inhibition of human placental microsomal fraction 17beta-HSD2 using [3H]E2 as substrate measured after 20 mins in presence of NAD+ by HPLC analysis; format: microsomes, Placenta, Microsome
T3 sequence (P37059 whole entry): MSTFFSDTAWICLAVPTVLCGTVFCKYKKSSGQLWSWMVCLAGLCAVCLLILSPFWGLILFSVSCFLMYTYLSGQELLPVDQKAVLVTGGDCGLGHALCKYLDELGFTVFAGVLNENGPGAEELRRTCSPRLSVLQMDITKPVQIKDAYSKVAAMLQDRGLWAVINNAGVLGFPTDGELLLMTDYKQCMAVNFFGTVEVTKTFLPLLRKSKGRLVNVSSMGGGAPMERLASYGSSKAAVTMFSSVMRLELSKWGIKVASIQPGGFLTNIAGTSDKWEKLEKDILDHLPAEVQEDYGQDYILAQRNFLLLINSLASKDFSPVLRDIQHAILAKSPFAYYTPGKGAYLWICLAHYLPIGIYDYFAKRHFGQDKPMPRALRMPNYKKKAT

Steryl-sulfatase [10] = biological target: T1, Steryl-sulfatase; experiment: Irreversible inhibition of human STS expressed in human T47D cells using [3H]E1S as substrate preincubated for 2 hr followed by substrate addition measured after 24 hrs in presence of E1S by HPLC analysis; format: cell-based
HEK293 = experiment: Cytotoxicity against HEK293 cells assessed as cell growth inhibition by measuring lethal concentration measured after 72 hrs by MTT assay; format: functional, Homo sapiens
HepG2 = experiment: Cytotoxicity against human HepG2 cells assessed as cell growth inhibition by measuring lethal concentration measured after 48 hrs by MTT assay; format: functional
[11] = biological target: T4, Aryl hydrocarbon receptor (Homo sapiens, UniProt P35869); experiment: Activation of AhR in human HepG2 cells assessed as increase in CYP1A1 activity at 3.16 uM measured after 48 hrs by fluorescence based analysis; format: cell-based; details: hepg2, 48 h
T4 sequence (P35869 whole entry): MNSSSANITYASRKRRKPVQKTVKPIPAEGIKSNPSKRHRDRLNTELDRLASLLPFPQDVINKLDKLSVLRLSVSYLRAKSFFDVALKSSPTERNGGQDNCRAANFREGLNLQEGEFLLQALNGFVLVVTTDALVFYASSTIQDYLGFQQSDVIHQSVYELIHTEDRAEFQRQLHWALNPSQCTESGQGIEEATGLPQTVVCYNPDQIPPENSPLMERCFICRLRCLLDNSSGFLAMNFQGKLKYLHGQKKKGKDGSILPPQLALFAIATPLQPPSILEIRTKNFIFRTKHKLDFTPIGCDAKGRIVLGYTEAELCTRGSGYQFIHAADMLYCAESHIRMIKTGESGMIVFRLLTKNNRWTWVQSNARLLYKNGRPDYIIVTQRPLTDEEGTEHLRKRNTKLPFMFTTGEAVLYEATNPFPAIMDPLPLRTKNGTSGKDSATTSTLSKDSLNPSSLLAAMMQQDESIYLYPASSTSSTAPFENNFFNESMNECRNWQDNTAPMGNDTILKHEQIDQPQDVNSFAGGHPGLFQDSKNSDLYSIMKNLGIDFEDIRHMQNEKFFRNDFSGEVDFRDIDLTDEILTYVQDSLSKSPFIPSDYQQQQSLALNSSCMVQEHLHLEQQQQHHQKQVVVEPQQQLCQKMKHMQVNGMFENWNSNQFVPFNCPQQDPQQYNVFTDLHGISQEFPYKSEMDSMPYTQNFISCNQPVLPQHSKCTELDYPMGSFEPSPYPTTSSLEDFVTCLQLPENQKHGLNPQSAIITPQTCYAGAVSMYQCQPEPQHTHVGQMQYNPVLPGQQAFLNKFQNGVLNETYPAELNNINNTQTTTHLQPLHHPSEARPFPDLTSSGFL

[12] = Observed Cmax in C57BL/6 mouse at 50 mg/kg, sc administered as single dose measured upto 24 hrs by HPLC-MS/MS analysis; format: ADME, organism-based; parameters: time < 24 hrs, dose 50 mg/kg, route sc; details: in vivo
[13] = Drug concentration in C57BL/6 mouse at 50 mg/kg, sc administered as single dose measured after 24 hrs by HPLC-MS/MS analysis; format: ADME, organism-based; details: in vivo, read-out: Drug uptake
[14] = Half life in C57BL/6 mouse at 50 mg/kg, sc administered as single dose measured after 24 hrs by HPLC-MS/MS analysis; format: ADME, organism-based; details: in vivo
[15] = AUC(0 to 24 hrs) in C57BL/6 mouse at 50 mg/kg, sc administered as single dose measured after 24 hrs by HPLC-MS/MS analysis; format: ADME, organism-based; parameters: time 24 hrs, dose 50 mg/kg, route sc; details: in vivo
[16] = Lipophilicity, logD of compound at pH 7.4; format: physicochemical; details: buffer
[17] = Aqueous solubility of compound in PBS measured after 1 to 24 hrs; format: physicochemical; details: time 1-24 hrs
[18] = biological target: T5, Steryl-sulfatase (Homo sapiens) (UniProt P08842); experiment: Inhibition of human STS expressed in human T47D cells at 1 uM using [3H]E1S as substrate incubated for 1 hr followed by substrate addition measured after 24 hrs in presence of E1S by HPLC analysis relative to control; format: cell-based; details: time 25.0 hrs
T5 sequence (whole entry): T1 sequence (P08842 whole entry)

`NS(=O)(=O)Oc1ccc(-c2ccc(C(=O)c3c(F)ccc(O)c3F)s2)cc1Cl` showed an IC50 (Steryl-sulfatase [1]) of 15 nM, a Ratio IC50 (Homo sapiens [2]) of 36 and a half-life [3] of under 5 min. For the same compound, the half-life [4] was under 5 min and the Ratio IC50 (Homo sapiens [5]) was 33.
`C[C@]12CC[C@H]3[C@@H](CCC4=CC(=O)CC[C@@]43C)[C@@H]1CC[C@@H]2O` [TESTOSTERONE] gave a microsomal CLint [6] of 74.5 µL/min/mg.
Compound `Cc1cc(-c2ccc(C(=O)N(C)c3ccc(OS(N)(=O)=O)c(Cl)c3)o2)cc(C)c1O` has an IC50 (Steryl-sulfatase [1]) of 38 nM, an IC50 [7] of 88 nM and an IC50 [8] of 400 nM. The IC50 [9] was 2400 nM and the Ratio IC50 (Homo sapiens [5]) was 6.
With `Cc1ccc(OS(N)(=O)=O)cc1N(C)C(=O)c1ccc(-c2cc(C)c(O)c(C)c2)o1` the IC50 (Steryl-sulfatase [1]) was 450 nM, the IC50 [7] was 3.2 nM and the half-life [3] was 19.3 min. The half-life [4] was 28.5 min, the IC50 [8] was 16 nM and the IC50 [9] was 4400 nM. For the same compound, the Ratio IC50 (Homo sapiens [5]) was 275, the IC50 (Steryl-sulfatase [10]) was 460 nM and the microsomal CLint [6] was 35.9 µL/min/mg. The LC20 (HEK293) was “<=38 uM”, the LC20 (HepG2) was 28000 nM and the Activity [11] was “Not Active”. For the same compound, the Cmax [12] was 517 nM, the concentration at 24 h [13] was 49 nM and the half-life [14] was 129 min. The AUC(0-t) at 24 h [15] was 1900 ng·h/mL, the logD [16] was 2.68 and the solubility [17] was 20 µM (≈ 8.61 µg/mL).
Work on `Cc1cc(-c2ccc(C(=O)N(C)c3cccc(OS(N)(=O)=O)c3C)o2)cc(C)c1O` yielded an IC50 [7] of 58 nM and an inhibition [18] of under 10%.
`Cc1ccccc1N(C)C(=O)c1ccc(-c2cc(C)c(O)c(C)c2)o1` showed an IC50 [7] of 2.9 nM, a Ratio IC50 (Homo sapiens [2]) of 563 and a half-life [3] of 38 min. It also gave a t1/2 ([3]; s9, 1 h, 1 h) of 38.1 min, a half-life [4] of 19 min and a t1/2 ([4]; s9, 1 h, 1 h) of 19.1 min. It also gave an inhibition [18] of under 10%, a Ratio IC50 (Homo sapiens [5]) of 570 and a microsomal CLint [6] of 18.2 µL/min/mg.
Compound `O=c1ccc2ccc(O)cc2o1` [UMBELLIFERONE] has a microsomal CLint [6] of 139 µL/min/mg.

Source: ChEMBL document CHEMBL5331123, “Potent Dual Inhibitors of Steroid Sulfatase and 17β-Hydroxysteroid Dehydrogenase Type 1 with a Suitable Pharmacokinetic Profile for In Vivo Proof-of-Principle Studies in an Endometriosis Mouse Model” (J Med Chem, 2023)
